The conditions of data set [1]: added to chemotherapy and radiation therapy; decreased consciousness and increased seizure activity; reference (109); cited from earlier work.
The test system of data set [2] is U87 glioblastoma cells. The data set is described as follows: Intracellular cAMP by ELISA, U87 glioblastoma cells. The format is cell-based, human. On the procedure: (§1) Growth factor and drug treatment. Following serum-starvation for 24 hours, astrocytes, granule cells, U87 cells and Daoy cells, were treated with 1 μg/ml CXCL12 (PeproTech), […] AMD3465 (kind gift from Simon Fricker, AnorMED, Langley, BC, Canada) (200 μM Rolipram (Sigma), or 10 μM Forskolin (Sigma) as indicated.
(§2) cAMP measurement in cell culture. cAMP concentration was measured using a Correlated-EIA™. Enzyme Immunoassay Kit (Assay Designs Inc. MI) according to the manufacturer's instructions. Briefly, U87 or Daoy cells were serum-starved for 24 hours, and treated with CXCL12 (1 μg/ml), Rolipram (200 μM), or forskolin (10 μM). Cells were lysed in 0.1M HCL and particulate matter was removed by centrifugation at >600×g for 10 min. The supernatants were dried down and resuspended in assay buffer.
(§3) Determination of cAMP concentration. Competitive immunoassay for cAMP concentration was performed exactly as directed by the manufacturer. Absorbance at 405 nm was measured and cAMP concentrations were determined by calculation based on a standard curve. Protein concentrations were measured by colormetric assay (Bio-Rad, Hercules, Calif.) according to the manufacturer's directions. cAMP values were normalized to protein for each sample individually.
A general note: In an ELISA, binding on a coated surface is turned into a signal by an enzyme label.

For another data set, the system named is U87 GBM xenografts. The data set can be described thus: Intracranial U87 xenograft growth by bioluminescence imaging. The format is in vivo, mouse.
The nature of data set [3]: Tolerability in xenograft-bearing mice. The format is in vivo, mouse. The conditions noted are these: 5 μg/g/day in the drinking water.
In data set [4] the test system is Daoy medulloblastoma cells. The data set is described as follows: Intracellular cAMP by ELISA, Daoy medulloblastoma cells. The format is cell-based, human. On the procedure:
as §1, §2, §3

The subject of data set [5] is Daoy xenografts. The data set is described as follows: cAMP in xenograft tumor tissue by ELISA. The format is in vivo, mouse. The settings on record: same treatment paradigms as growth studies, EGFP-luciferase xenografts. The method, then: cAMP measurement in tumor tissue. EGFP-expressing tumor tissue was removed under direct fluorescence microscopy and frozen in liquid nitrogen. Frozen tissue was weighed and homogenized with 10 volumes of 10% ice-cold trichloroacetic acid, then centrifuged for 10 min at 4000 rpm to remove precipitate. The supernatant was washed three times with 8 volumes of water-saturated ether. The aqueous phase was dried down and resuspended in cAMP assay buffer.
as §3
To ascertain whether the in vivo anti-tumor effects of Rolipram and AMD 3465 were correlated with increases in intratumoral cAMP, we repeated the treatment paradigms with Daoy xenografts that had been engineered to express both enhanced green fluorescent protein (EGFP) and firefly luciferase. […] Tumor tissue was easily visualized in situ under direct fluorescence microscopy (FIG. 20A). Cyclic AMP was extracted from GFP positive tissue, and cAMP levels were measured by ELISA.

Data set [6] has as its system Daoy xenografts. The data set can be described thus: Intracranial Daoy xenograft growth by bioluminescence imaging. The format is in vivo, mouse.
The conditions of data set [7]: in vivo; cited from earlier work.
Data set [8] deals with Daoy medulloblastoma cells. The data set is described as follows: Viable cell number by trypan blue exclusion, Daoy cells. The format is cell-based, human. The settings on record: Rolipram 200 μM, AMD 3465 2.5 μg/ml; for effect on CXCL12 induced growth: with CXCL12 1 μg/ml, Forskolin 10 μM. The method, then:
(§4) Brain tumor cell cultures. Cells were cultured in αMEM (Invitrogen, Carlsbad, Calif.) supplemented with 10% FCS (Biomedia, Foster City, Calif.) in the presence of penicillin streptomycin at 37° C. with 5% CO2.
as §1

The test system of data set [9] is U87 glioblastoma cells. The data set can be described thus: Viable cell number by trypan blue exclusion, U87 cells. The format is cell-based, human. The settings on record: Rolipram 200 μM, AMD 3465 2.5 μg/ml; for effect on CXCL12 induced growth: with CXCL12 1 μg/ml, Forskolin 10 μM. The method, then: as §4, §1
Data set [10] relates to PDE4A-expressing U87 cells. The data set is described as follows: Viable cell number, PDE4A-expressing U87 cells. The settings on record: CXCL12 1 μg/ml, AMD 3465 2.5 μg/ml, Rolipram 200 μM. Format: cell-based, human. The method, then:
(§5) PDE4A expression. U87 and Daoy cells (15,000 cells) were transiently transfected for 48 h with a plasmid encoding a transgene for the tet-off transactivator (tTA) alone (kind gift from Dr. Louis Muglia, Washington University School of Medicine, St. Louis, Mo.), a plasmid containing a transgene for tet-off regulated expression of phosphodiesterase 4A (PDE4A) alone (kind gift from Dr. James Cherry, Boston University, Boston, Mass.), or a combination of both plasmids, using lipofectamine (Invitrogen) according to the manufacturer's instructions. Plasmid DNA (2 μg) was mixed with lipofectamine (5 μl) per 35 mm^2 dish. Transfection proceeded for 9 hours prior to exchanging transfection media for αMEM supplemented with 10% FCS.

For data set [11], the system named is PDE4A-expressing Daoy cells. The data set can be described thus: Viable cell number, PDE4A-expressing Daoy cells. The format is cell-based, human. The settings on record: CXCL12 1 μg/ml, AMD 3465 2.5 μg/ml, Rolipram 200 μM. On the procedure: as §5
In a further data set the target is CXCR4 (Homo sapiens, UniProt P61073). The conditions noted are these: compared with AMD 3100, reference (84); cited from earlier work.
Chain of CXCR4 (P61073 whole entry, species assumed): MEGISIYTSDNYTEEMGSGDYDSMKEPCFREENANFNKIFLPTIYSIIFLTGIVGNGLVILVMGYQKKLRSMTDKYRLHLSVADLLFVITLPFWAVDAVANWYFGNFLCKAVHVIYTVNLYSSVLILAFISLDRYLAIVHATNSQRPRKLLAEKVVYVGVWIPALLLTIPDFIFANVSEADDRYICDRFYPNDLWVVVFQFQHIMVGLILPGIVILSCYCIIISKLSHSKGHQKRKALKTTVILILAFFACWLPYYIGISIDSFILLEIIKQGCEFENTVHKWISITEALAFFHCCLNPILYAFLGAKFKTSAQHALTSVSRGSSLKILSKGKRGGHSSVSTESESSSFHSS
Setting [12] is: Rolipram 200 μM or Forskolin 10 μM, not abrogated by CXCL12.
Where [13] appears, read: 5 μg/g/day in the drinking water, from two weeks after tumor cell injection.
Where [14] appears, read: AMD 3465 2.5 μg/ml coadministered with CXCL12 1 μg/ml.
Setting [15] is: continuous subcutaneous infusion 50 μg/day (2.5 mg/kg/day) for 5 weeks.

With `CC(=O)CCCCn1c(=O)c2c(ncn2C)n(C)c1=O` [Pentoxiphyllin], the toxicity result in data set [1] is reported as “excessive toxicity”.

On to `COc1ccc(C2CNC(=O)C2)cc1OC1CCCC1` (centres unmarked) [Rolipram], for which the “change in intracellular cAMP” value (in the data set with U87 glioblastoma cells [2] (setting [12]); in data set [4] (setting [12])) was “predictable increases” throughout. Also, the “inhibition of xenograft growth” value in the data set on U87 GBM xenografts (setting [13]) is reported as 96%; with Daoy xenografts [6] (setting [13]) it was 58%. Further, in data set [3] (data not shown), the “animal weights compared to the control group” value was “better maintained”. The “appearance of treated animals” value in data set [3] (throughout the treatment period) is “appeared well”. Further, the “amount of cAMP within tumor tissue” value with Daoy xenografts [5] is given as “significant increase”. The “blood brain barrier passage” value in data set [7] is reported as “crosses an intact blood brain barrier”. In addition, the “effect on cell number alone” value (in data set [8]; in the data set on U87 glioblastoma cells [9]) was “little to no effect” throughout. The “effect on CXCL12 induced growth” value (in data set [8]; in the data set on U87 glioblastoma cells [9]) was “completely blocked” in each case. Also, the “effect on cell number” value in [10] and in data set [11] was “growth inhibitory effect” each time.

Turning to `c1ccc(CNCc2ccc(CN3CCCNCCNCCCNCC3)cc2)nc1` [AMD 3465], the “effect on cAMP levels alone” value (with U87 glioblastoma cells [2] (AMD 3465 2.5 μg/ml); in data set [4] (AMD 3465 2.5 μg/ml)) was “little to no effect” throughout. The “CXCL12-induced suppression of cAMP” value (with U87 glioblastoma cells [2] (setting [14]); in data set [4] (setting [14])) was “blocked” throughout. Besides, the “inhibition of xenograft growth as compared to controls” value in the data set on U87 GBM xenografts (setting [15]) is given as 80%; with Daoy xenografts [6] (setting [15]), 85%. In addition, the “amount of cAMP within tumor tissue” value in the data set with Daoy xenografts [5] is given as “significant increase”. The “effect on cell number alone” value (in data set [8]; in the data set with U87 glioblastoma cells [9]) was “no significant effect” each time. Moreover, the “effect on CXCL12 induced growth” value (in data set [8]; in the data set with U87 glioblastoma cells [9]) was “completely blocked” each time. Besides, the “effect on cell number” value in [10] and in [11] was “no effect” in each case. The “affinity for CXCR4” value at CXCR4 is “greater affinity”.

The record behind these values is patent US7892767B2, “Phosphospecific chemokine receptor antibodies” (Washington University in St. Louis, priority 2005, dated 2011).
